{
  "source": "patent US20020051760A1",
  "about": "“Method for screening a substance having promoting activity on hair growth” (SUMITOMO ELECTRIC INDUSTRIES, Ltd., priority 2000, published 2002)",
  "key": {"[1]": {"system": "Hacl-1 in the hair follicles", "experiment": "Induction of Hacl-1 expression and anagen in hair follicles of mouse back skin after subcutaneous injection", "assay_type": "in vivo", "conditions": "C57BL/6 mice in telogen, 0.8 mg/ml solution, 0.1 ml subcutaneously 5 times at intervals of 24 hours", "description": "(§1) A C57BL mouse (14 weeks old) was shaved on the back with clippers to confirm that the mouse had both skin areas in anagen and telogen as to the hair cycle based on colors of the skin. Each 200 mg of the skin areas in anagen and telogen was collected from the mouse and homogenized on ice for 2 minutes, and then suspended in a buffer (PBS). The supernatant was collected and subjected to SDS-polyacrylamide gel electrophoresis (SDS-PAGE). The respective hair follicles in telogen and anagen were distinguished by observing the tissue section under a microscope, and the criterion shown in FIG. 1 was applied for judgment.\nPromoting activity on hair growth of the aforementioned polypeptide H1 and oligopeptide ssb7 was evaluated. C57BL/6 mice are known to have sustained telogen for about 50 days from the 45-day after birth to around the 95-day, and the hair cycle of the animal is easily judged based on the skin color changes, i.e., from pink in telogen to gray or black in anagen. […] The polypeptide H1 solution (0.8 mg/ml) or the oligopeptide ssb7 solution (0.8 mg/ml) prepared above was subcutaneously injected 5 times in the amount of 0.1 ml at intervals of 24 hours, and Hacl-1 in the hair follicles was measured with time according to the method of Example 1."}, "[2]": {"system": "Hacl-1 in the cultures (mouse beard)", "experiment": "Induction of Hacl-1 expression in cultured mouse beard", "assay_type": "cell-based, mice", "conditions": "50 μg/ml, cultivation for 5 days; the control showed only slight expression", "description": "as §1\nThe beard on the both sides of the mice used in Example 2 was collected and cultured by the method described in Development, 105, pp. 271-277, 1989. The beard from one side was used as a control, and that from the other side was treated with the aforementioned oligopeptide ssb7 (50 μg/ml). After cultivation for 5 days, Hacl-1 in the cultures was determined according to the method of Example 1."}},
  "note": "Where no end group is shown, it is not given here.",
  "data": [
    {"substance": "ssb7: S-S bridged oligopeptide obtained by crosslinking pep7 (Ser-Ile-Glu-Gln-Ser-Cys-Asp-Gln-Asp-Glu) with BMH (SIEQSCDQDE; not fully specified; printed as Ser-Ile-Glu-Gln-Ser-Cys-Asp-Gln-Asp-Glu; also: two chains crosslinked through Cys6 by BMH (bismaleimidohexane))", "values": [
      {"measurement": "induction of anagen of the hair follicles", "setting": "[1]; 20-day, judged from Hacl-1 expression", "result": "induction of anagen"},
      {"measurement": "Hacl-1 band in hair follicle samples (Western Blotting with antiserum against Hacl-1)", "setting": "[1]; samples at 20-day", "result": "clear band of Hacl-1 was observed"},
      {"measurement": "expression of Hacl-1 in cultured beard", "setting": "[2]", "result": "expression of Hacl-1 was observed"}
    ]}
  ]
}
